The values below come from patent publication US20220220561A1, “METHODS AND CLINICAL PROTOCOLS AND KITS PERTAINING TO MAKING AND USING THERAPEUTIC COMPOSITIONS FOR CELLULAR TREATMENT” (ADVANCED REGEN MEDICAL TECHNOLOGIES, LLC, priority 2019, published 2022).

By viability is commonly meant a read-out of living cells in per cent, often relative to untreated cells. Read a low viability as more harm to the cells.

The subject of one data set is heterochronic cultures. The data set is described as follows: exosome production, total RNA and miRNA payload in heterochronic cultures. The class given is cell-based, human.
The test system of a further data set is Aged TNCs. The data set is described as follows: cell count and Trypan blue viability of aged TNCs cultured with CaMKP inhibitor. It counts as cell-based, human. The protocol:
Aged TNCs (20×10^6 cells per sample) were cultured with CaMKP inhibitor (FT-0640107 shown below) at the following concentrations 25 uM, 10 uM, 5 uM, 1 uM & 0 (vehicle). After 48 and 72 hours, cells were harvested, counted using Turk's solution and percent viability assessed using Trypan blue exclusion.
At 72 hours following treatment with the CaMPK inhibitor, FT-0640107, or vehicle, cells were harvested, counted and viability measured using Trypan blue exclusion.

The test system of a further data set is Restored cells. The data set is described as follows: transwell co-culture restoration in the presence or absence of manumycin. It counts as cell-based, human. An excerpt:
Receiver cell samples (i.e., R1, R2, and R3) were individually paired with donor cell samples (i.e., D1, D2, and D3) and the pairs co-cultured in a transwell culture cell for four weeks. The morphology of the cells was studied at 2 weeks into the co-culture and at 4 weeks of co-culture. Gene expression arrays, protein arrays, and telomere length experiments compared freshly defrosted cells from the collection tubes (referred to as the baseline donor cell sample or baseline receiver cell sample) with cells at the 4-week study endpoint (referred to as restored cell samples).
The nature of the soluble particles passing through the permeable membrane in the transwell co-culture experiments was investigated. Specifically, transwell co-culture experiments were carried out in the presence or absence of manumycin. Manumycin, N-[(1S,5S,6R)-5-hydroxy-5-[(1E,3E,5E)-7-[(2-hydroxy-5-oxo-1-cyclopenten-1-yl)amino]-7-oxo-1,3,5-heptatrien-1-yl]-2-oxo-7-oxabicyclo[4.1.0]hept-3-en-3-yl]-2E,4E,6R-trimethyl,2,4-decadienamide, is an antibiotic that acts a potent and selective farnesytransferase inhibitor. Manumycin is also known to inhibit the release of exosomes. […] Further support for the role of exosome/microvesicles in mediating the disclosed cellular restoration process is shown in FIG. 55.

The subject of data set [1] is serine-threonine protein phosphatases. The following applies: cited from earlier work.

Regarding `CC(NS(=O)(=O)c1ccc2[nH]c(=O)c(=O)[nH]c2c1)C(=O)O` (centres unmarked) [BCI-137], in the data set on heterochronic cultures, the “exosome production and total RNA content” value is “minimal effect”; the “small and miRNA payload” value was “depleted”. Moreover, in the data set on aged MPB (heterochronic cultures treated with inhibitor), the “aged MPB clonogenicity” value is recorded as “significant decrease”.

Consider `Nc1c(S(=O)(=O)O)cc(S(=O)(=O)[O-])c2cccc(O)c12.[Na+]` [FT-0640107], for which the cell number result in the data set with Aged TNCs (1 μM, 72 hours, vs vehicle control and 25 μM, donor A04) is “increase in cell number”. The compound further displayed a viability at 1 µM in the data set with Aged TNCs (Homo sapiens, 1 μM, 72 hours, donor A04) of 96.3%. In the data set with Aged TNCs (Homo sapiens, 25 μM, 72 hours, donor A04), this compound returned a viability at 25 µM of 93%. For the same compound, the “cell viability and number” value in the data set on Aged TNCs (donor A03, 48 or 72 hour) is “no significant difference”.

On to `O=C(/C=C/c1ccc(/C=C/C(=O)Nc2ccc(C3=NCCN3)cc2)cc1)Nc1ccc(C2=NCCN2)cc1` [GW4869], for which the “toxicity to aged cultures” value with aged MPB is given as “extremely toxic”. In addition, the restorative phenotype result with aged MPB (blocking global exosome production, data not shown) is listed as “abrogated the restorative phenotype”.

In the case of `CCCC[C@@H](C)/C=C(C)/C=C(\C)C(=O)NC1=C[C@@](O)(/C=C/C=C/C=C/C(=O)NC2=C(O)CCC2=O)[C@@H]2O[C@@H]2C1=O` [manumycin, N-[(1S,5S,6R)-5-hydroxy-5-[(1E,3E,5E)-7-[(2-hydroxy-5-oxo-1-cyclopenten-1-yl)amino]-7-oxo-1,3,5-heptatrien-1-yl]-2-oxo-7-oxabicyclo[4.1.0]hept-3-en-3-yl]-2E,4E,6R-trimethyl,2,4-decadienamide], in the data set with Restored cells (5 μM), the “morphology of restored cells” value is on record as “less robust morphology”. In addition, the telomere length entry in the data set on Restored cells (restored cell sample) is reported as “decreased”. Further, the “protein expression of restored cell samples” value in the data set on Restored cells (vs absence of manumycin) was “elevated levels of all proteins investigated”. Further, the “gene expression of restored cell samples” value in the data set on Restored cells (vs changes seen in the absence of manumycin) was “did not display a change in expression levels”.

Regarding dragmacidin D, the “inhibition of serine-threonine protein phosphatases” value in data set [1] is on record as “potent inhibitor”.
